Source: article PMC9811519 (RSC Chemical Biology, 2022)
Where a SMILES comes first, the peptide text is derived from it. The star is where a group is joined. X1 = O=C(O)CN(CCN(CC(=O)O)CC(=O)O)CCN(CC(=O)O)CC(=O)NCCN1C(=O)CC(*)C1=O; Myristoyl = CCCCCCCCCCCCCC(=O)*

Tests used:
[1] = system: 5T33 murine myeloma cells; experiment: Efflux / retention of indium-111 by radiolabelled cells; type: cell-based; details: 5T33 cells washed after radiolabelling, γ-counter, SD of 3 biological replicates
Description: To measure efflux, cells were washed after radiolabelling and re-incubated in fresh growth medium for 2–20 h.
(§1) After cell labelling, cells were washed twice with PBS and 300 μL of fresh growth media was added. Uptake efficiency was quantified at this time-point by measuring pellet and supernatant in the γ-counter. At 2, 5 and 20 h after addition of fresh media, cells were washed twice and activity in both the supernatant (original supernatant and washes) and pellet was measured using a γ-counter. Efflux was quantified as the activity of the supernatant divided by the total activity (supernatant + pellet). Cell viability was assessed prior to radiolabelling and at each time point by trypan blue exclusion.[54]

[2] = system: 5T33 murine myeloma cells; experiment: Cell viability, trypan blue exclusion assay
Description: Cell viability was assessed using a trypan blue exclusion assay (Fig. 2(d) and (e)).
as §1

[3] = system: 5T33 murine myeloma cells; experiment: Comparative cell uptake (cell radiolabelling yield), 10^5 cells, 2 MBq; type: cell-based
Description: Cell pellets were obtained by centrifugation, washed and gamma-counted.
as §1

NSG male mice = experiment: SPECT/CT imaging and ex vivo biodistribution; type: in vivo, mouse
Description: A SPECT/CT scan was acquired for 2 h immediately after injection (Fig. 3(a)).
Animal imaging studies were ethically reviewed by an Animal Welfare & Ethical Review Board at King's College London and carried out in accordance with the Animals (Scientific Procedures) Act 1986 (ASPA) UK Home Office regulations governing animal experimentation. […] Animals were maintained under isoflurane inhalation anaesthesia (2– 2.5% Isoflurane in air) for 2 h post-injection. […] The whole body SPECT scan time was 30 min × 4, (conducted sequentially) with a frame time of 40 s (using a 4-head scanner with 4 × 9 [1.4 mm] pinhole collimators in helical scanning mode) followed by a helical CT (45 kVP X-ray source, 1000 ms exposure time in 180 projections over 7.5 min). After this, animals were allowed to recover. SPECT/CT scans were acquired again, 1 day PI, after which all animals were culled (by increasing the dose of anaesthesia followed by cervical dislocation to confirm death) and organs/tissues harvested, weighed and radioactivity counted using a gamma counter. SPECT/CT images were reconstructed in a 256 × 256 matrix using HiSPECT (ScivisGmbH), a reconstruction software package and visualised and quantified using VivoQuant v.3.0 software (InVicro LLC., Boston, USA).

Structure (SMILES) | Indium-111 remaining associated with cells ([1]; 2 h after re-incubation in fresh growth medium) | Indium-111 remaining associated with cells ([1]; 20 h after re-incubation in fresh growth medium) | Cells viable after radiolabelling ([2]; 5T33 cells, 20 h after radiolabelling, trypan blue exclusion, prior to radiolabelling 89 ± 4% (DTPA-CTP group) and 96 ± 0.3% (oxine group), 3 biological replicates) | Cell radiolabelling yield ([3]; 1 × 10^5 5T33 cells in 200 μL, 2 MBq, 37 °C, DTPA-CTP tracer 3 h in serum-containing media, oxine tracer 30 min in serum-free media, washed, γ-counted, SD of 3 biological replicates) | Average radioactivity per cell ([3]; 1 × 10^5 5T33 cells, 2 MBq added radioactivity, corresponds to the cell radiolabelling yield) | Localisation of indium-111 activity by SPECT/CT (NSG male mice; NSG male mice, intravenous via tail vein, 0–2 h PI, one animal per group scanned) | Time to dissociation from cell membranes post-administration of cells (NSG male mice; [^111In]In-DTPA-CTP-labelled 5T33 cells, intravenous, NSG mice, inferred from SPECT) | Cells viable after radiolabelling ([2]; 20 h)
[111In+3].[O-]c1cccc2cccnc12.[O-]c1cccc2cccnc12.[O-]c1cccc2cccnc12 [[^111In]In-(oxine)3] | 76.0 ± 5.1% | 46.0 ± 9.6% | 74 ± 6% | 20.6 ± 6.1 %AR | 4.1 ± 1.0 Bq per cell |  |  | 
CCCCCCCCCCCCCC(=O)NCCCC[C@H](NC(=O)CCCCCCCCCCCCC)C(=O)N[C@@H](CO)C(=O)N[C@@H](CO)C(=O)N[C@@H](CCCCN)C(=O)N[C@@H](CO)C(=O)N1CCC[C@H]1C(=O)N[C@@H](CO)C(=O)N[C@@H](CCCCN)C(=O)N[C@@H](CCCCN)C(=O)N[C@@H](CC(=O)O)C(=O)N[C@@H](CC(=O)O)C(=O)N[C@@H](CCCCN)C(=O)N[C@@H](CCCCN)C(=O)N1CCC[C@H]1C(=O)NCC(=O)N[C@@H](CC(=O)O)C(=O)N[C@@H](CSC1CC(=O)N(CCNC(=O)CN(CCN(CCN(CC(=O)O)CC(=O)O)CC(=O)O)CC(=O)O)C1=O)C(=O)O (some centres unmarked) [[^111In]In-DTPA-CTP, metal not drawn] (Myristoyl-K(Myristoyl)SSKSPSKKDDKKPGDC(X1)-OH) |  |  |  |  |  | indium-111 activity in the blood pool and liver | 1 to 2 h | 88 ± 2%
